Results from patent publication US20240376093A1, “SULFOXIMINE COMPOUND AND USE THEREOF” (MEDSHINE DISCOVERY INC., priority 2021, published 2024).
Where a name gives a salt, the structure may show the parent alone. Read-outs that look alike come from different tables or passages of the source.

Key:
[1] = Pharmacokinetics of the compound in Balb/c mice; format: in vivo; details: mouse, plasma, male Balb/c mice, fasted; for AUC: read-out: AUC (exposure)
Experimental: • Purpose of assay: To assay the pharmacokinetics of the compound in Balb/c mice • Assay materials: Male Balb/c mice, fasted
The pharmacokinetic profiles of compound 1 in rodents after intravenous injection and oral administration were assayed using standard protocols.
Acclimatization/quarantine of Balb/c mice was performed for at least 3 days after arrival at the facility. Upon completion of the acclimatization/quarantine, a veterinarian or designee examined the health status of the Balb/c mice to evaluate whether the animals were suitable for the assay study. All Balb/c mice were fasted overnight before administration and resumed feeding 4 hours after administration. In the assay, the candidate compound was formulated into a homogeneous solution and given to Balb/c mice via a single intravenous injection and oral administration. The intravenous vehicle was a clear solution of 80% polyethylene glycol 400/20% water and the oral vehicle was a homogeneous suspension of ethanol/vitamin E polyethylene glycol succinate/polyethylene glycol 300 (5/5/90). The animals were weighed before administration and the administered volume was calculated based on body weight. Whole blood samples were collected by means of jugular vein puncture within 24 hours. All blood samples were immediately transferred to labeled commercial centrifuge tubes containing K2-EDTA. After blood samples were collected, the blood samples were centrifuged at 3200 g for 10 minutes at 4° C. The supernatant plasma was aspirated, quickly placed on dry ice, and then stored at −60° C. or lower for LC-MS/MS analysis. The data of blood drug concentration-time were analyzed using the WinNonlin software package (Version 6.3 and above) using a non-compartmental model. Pharmacokinetic parameters were calculated, including (if data permitted), but not limited to, peak concentration (Cmax), time to peak (Tmax), elimination half-life (T 1/2), area under plasma concentration-time curve (AUC), mean retention time (MRT), bioavailability, etc.

[2] = system: IFNα-stimulated phosphorylated STAT1; experiment: Assay of IFNα-stimulated phosphorylated STAT1 in hPBMC (flow cytometry, CD4+ T cells); format: cell-based, Human; details: IFN-α 1000 U/ml, pSTAT1 in CD4+ T cells
Experimental: Human peripheral blood mononuclear cells (hPBMC) were plated at a cell density of 1×10^5 cells/well and placed in a 37° C. incubator for 90 minutes. Different concentrations of compounds were then added to the cells, wherein the concentration of each compound started from […] and was serially diluted 5-fold to a total of 8 concentrations. Compounds and cells were incubated at 37° C. for 30 minutes. IFN-α (1000 U/ml) was used to stimulate hPBMC, and then flow cytometry was used to detect the level of phosphorylated STAT1 in CD4+ T cells to evaluate the inhibitory activity of compounds on the IFN-α pathway.

[3] = molecular target: TYK2 protein (His-TVMV-TYK2 JH2 (575-869)) (Homo sapiens (Human), UniProt P29597); experiment: Tyk2 JH2 enzymatic activity assay (HTRF, fluorescein-labeled kinase tracer); format: binding; details: 90 minutes at room temperature
TYK2 protein (His-TVMV-TYK2 JH2 (575-869)), sequence (P29597 575-869, species assumed): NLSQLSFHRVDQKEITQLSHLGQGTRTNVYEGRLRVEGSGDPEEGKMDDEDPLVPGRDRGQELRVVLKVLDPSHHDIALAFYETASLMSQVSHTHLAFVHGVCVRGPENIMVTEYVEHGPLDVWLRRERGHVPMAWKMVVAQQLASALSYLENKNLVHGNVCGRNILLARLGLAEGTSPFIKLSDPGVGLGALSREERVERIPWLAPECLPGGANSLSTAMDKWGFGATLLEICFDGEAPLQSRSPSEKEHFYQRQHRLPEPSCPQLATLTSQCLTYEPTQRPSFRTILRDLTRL
Experimental: The assay system was incubated at room temperature for 90 minutes. The resulting HTRF (homogeneous time-resolved fluorescence) signal, i.e., the ratio of the fluorescence intensity of the fluorescein acceptor (520 nm) and the terbium donor (495 nm) at the emission wavelength, was then measured on an Envision plate reader, and based on this, the IC50 value was calculated.

| IC50 [3] [nM] | other results | SMILES |
| --- | --- | --- |
|  | AUC ([1]; IV (1 mg/kg)): 9.38 µM·h; clearance ([1]; IV (1 mg/kg), read-out: Cl (clearance rate)): 3.39 mL/min/kg; half-life ([1]; IV (1 mg/kg), read-out: T1/2 (half-life) (converted)): 1.61 h; Vd ([1]; IV (1 mg/kg), read-out: Vd (volume of distribution)): 0.45 L/kg; AUC ([1]; PO (10 mg/kg)): 47.2 µM·h; Cmax ([1]; PO (10 mg/kg), read-out: Cmax (maximum concentration)): 13.4 µM; bioavailability ([1]; PO (10 mg/kg), read-out: F (bioavailability)): 51.4%; Tmax ([1]; PO (10 mg/kg), read-out: Tmax (time to peak concentration)): 0.75 h; IC50 [2]: 1.1 nM | [2H]C([2H])([2H])CC(=O)c1cnc(NC(=O)C2CC2)cc1Nc1cccc(-c2cnc(N=S(C)(C)=O)cn2)c1OC [Compound 1] |
| 0.06 | IC50 ([2]; Homo sapiens, CD4+ T): 0.2 nM | [2H]C([2H])([2H])NC(=O)c1nnc(NC(=O)C2CC2)cc1Nc1cccc(-c2cnc(N=S(C)(C)=O)cn2)c1OC [Compound 2] |
| 0.03 | IC50 ([2]; Homo sapiens, CD4+ T): 2.1 nM | [2H]C([2H])([2H])NC(=O)c1cnc(NC(=O)C2CC2)cc1Nc1cccc(-c2cnc(N=S(C)(C)=O)cn2)c1OC [Compound 3] |
| 0.07 | IC50 ([2]; Homo sapiens, CD4+ T): 0.6 nM | CCC(=O)c1cnc(NC(=O)C2CC2)cc1Nc1cccc(-c2cnc(N=S(C)(C)=O)cn2)c1OC [Compound 4] |
| 0.07 |  | [2H]C([2H])([2H])CC(=O)c1cnc(NC(=O)C2CC2)cc1Nc1cccc(-c2cnc(N=S3(=O)CCOCC3)cn2)c1OC [Compound 5] |
| 0.18 |  | [2H]C([2H])([2H])CC(=O)c1cnc(NC(=O)C2CC2)cc1Nc1cccc(-c2cnc(N=S3(=O)CCC3)cn2)c1OC [Compound 6] |
| 0.09 |  | [2H]C([2H])([2H])CC(=O)c1cnc(NC(=O)C2CC2)cc1Nc1cccc(-c2cnc(N=S3(=O)CCCC3)cn2)c1OC [Compound 7] |
| 0.15 | IC50 ([2]; Homo sapiens, CD4+ T): 0.4 nM | [2H]C([2H])([2H])CC(=O)c1cnc(NC(=O)C2CC2)cc1Nc1cccc(-c2cnc(N=S3(=O)CCN(C)CC3)cn2)c1OC [Compound 8] |
| 0.07 | IC50 [2]: 0.5 nM | [2H]C([2H])([2H])CC(=O)c1cnc(NC(=O)C2CC2)cc1Nc1cccc(-c2cnc(N=S(C)(C)=O)cn2)c1OC [Compound 9] |
| 0.06 |  | [2H]C([2H])([2H])CC(=O)c1cnc(Nc2ccccn2)cc1Nc1cccc(-c2cnc(N=S(C)(C)=O)cn2)c1OC [Compound 10] |
| 0.11 |  | [2H]C([2H])([2H])CC(=O)c1cnc(Nc2ccc(F)cn2)cc1Nc1cccc(-c2cnc(N=S(C)(C)=O)cn2)c1OC [Compound 11] |
| 0.05 |  | [2H]C([2H])([2H])CC(=O)c1cnc(Nc2cccc(C#N)n2)cc1Nc1cccc(-c2cnc(N=S(C)(C)=O)cn2)c1OC [Compound 12] |
| 0.12 |  | [2H]C([2H])([2H])CC(=O)c1cnc(Nc2cncc(C)n2)cc1Nc1cccc(-c2cnc(N=S(C)(C)=O)cn2)c1OC [Compound 13] |
| 0.25 |  | [2H]C([2H])([2H])CC(=O)c1cnc(NC(=O)C2CCC2)cc1Nc1cccc(-c2cnc(N=S(C)(C)=O)cn2)c1OC [Compound 14] |
| 0.08 |  | [2H]C([2H])([2H])CC(=O)c1cnc(NC(=O)C2CC2)cc1Nc1cc(F)cc(-c2cnc(N=S(C)(C)=O)cn2)c1OC [Compound 15] |
| 0.08 |  | [2H]C([2H])([2H])CC(=O)c1cnc(NC(=O)C2CC2)cc1Nc1nccc(-c2cnc(N=S(C)(C)=O)cn2)c1OC [Compound 16] |

| IC50 [3] [nM] | other results | SMILES |
| --- | --- | --- |
| 0.29 |  | COCC(=O)c1cnc(NC(=O)C2CC2)cc1Nc1cccc(-c2cnc(N=S(C)(C)=O)cn2)c1OC [Compound 17] |
| 0.09 |  | COc1c(Nc2cc(NC(=O)C3CC3)ncc2C(C)=O)cccc1-c1cnc(N=S(C)(C)=O)cn1 [Compound 18] |
| 0.12 |  | COc1c(Nc2cc(NC(=O)C3CC3)ncc2C(=O)C2CC2)cccc1-c1cnc(N=S(C)(C)=O)cn1 [Compound 19] |
| 0.19 |  | [2H]C([2H])([2H])CC(=O)c1cnc(NC(=O)N2CCC2)cc1Nc1cccc(-c2cnc(N=S(C)(C)=O)cn2)c1OC [Compound 20] |
| 0.13 |  | [2H]C([2H])([2H])CC(=O)c1cnc(NC(=O)C2CC2)cc1Nc1cc(C)cc(-c2cnc(N=S(C)(C)=O)cn2)c1OC [Compound 21] |
| 0.14 |  | [2H]C([2H])([2H])CC(=O)c1cnc(NC(=O)C2CC2)cc1Nc1cc(OC)cc(-c2cnc(N=S(C)(C)=O)cn2)c1OC [Compound 22 hydrochloride] |
| 0.13 |  | [2H]C([2H])([2H])CC(=O)c1cnc(NC(=O)NC2CC2)cc1Nc1cccc(-c2cnc(N=S(C)(C)=O)cn2)c1OC [Compound 23] |
| 0.09 |  | [2H]C([2H])([2H])CC(=O)c1cnc(NC(=O)C2CC2)cc1Nc1cccc(-c2cnc(N=S(=O)(CC)CC)cn2)c1OC [Compound 27] |
| 0.17 |  | [2H]C([2H])([2H])CC(=O)c1cnc(NC(=O)c2cn[nH]c2)cc1Nc1cccc(-c2cnc(N=S(C)(C)=O)cn2)c1OC [Compound 28] |
| 0.11 |  | [2H]C([2H])([2H])CC(=O)c1cnc(Nc2cc3cc[nH]c3cn2)cc1Nc1cccc(-c2cnc(N=S(C)(C)=O)cn2)c1OC [Compound 29] |
| 0.56 |  | [2H]C([2H])([2H])CC(=O)c1cnc(NC(=O)C23CC(C2)C3)cc1Nc1cccc(-c2cnc(N=S(C)(C)=O)cn2)c1OC [Compound 30] |
| 0.34 |  | [2H]C([2H])([2H])CC(=O)c1cnc(NC(=O)C2C3COCC32)cc1Nc1cccc(-c2cnc(N=S(C)(C)=O)cn2)c1OC (centres unmarked) [Compound 31] |
| 0.31 |  | [2H]C([2H])([2H])CC(=O)c1cnc(NC(=O)C2CC3(CCC3)C2)cc1Nc1cccc(-c2cnc(N=S(C)(C)=O)cn2)c1OC [Compound 32] |
| 0.3 |  | [2H]C([2H])([2H])CC(=O)c1cnc(NC(=O)C2CC3CCC2C3)cc1Nc1cccc(-c2cnc(N=S(C)(C)=O)cn2)c1OC (centres unmarked) [Compound 33] |
| 0.76 |  | [2H]C([2H])([2H])CC(=O)c1cnc(Nc2ccn(C)c(=O)c2)cc1Nc1cccc(-c2cnc(N=S(C)(C)=O)cn2)c1OC [Compound 35] |
